Experimental data as given in ChEMBL document CHEMBL1201862, “PubChem BioAssay data set” (2004).
Calls of active or inactive are those of the source.

Assays:
Fatty acid synthase [1] = target: T1, Fatty acid synthase (Homo sapiens, UniProt P49327); test: inhibition of human FAS-TE enzyme activity – biochemical, kinetic fluorescence intensity, dose response (AID 624326); assay type: functional;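 further: rate of fluorescence rise from hydrolysis of a fluorogenic O-methyl fluorescein ester substrate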
T1 sequence (P49327 whole entry): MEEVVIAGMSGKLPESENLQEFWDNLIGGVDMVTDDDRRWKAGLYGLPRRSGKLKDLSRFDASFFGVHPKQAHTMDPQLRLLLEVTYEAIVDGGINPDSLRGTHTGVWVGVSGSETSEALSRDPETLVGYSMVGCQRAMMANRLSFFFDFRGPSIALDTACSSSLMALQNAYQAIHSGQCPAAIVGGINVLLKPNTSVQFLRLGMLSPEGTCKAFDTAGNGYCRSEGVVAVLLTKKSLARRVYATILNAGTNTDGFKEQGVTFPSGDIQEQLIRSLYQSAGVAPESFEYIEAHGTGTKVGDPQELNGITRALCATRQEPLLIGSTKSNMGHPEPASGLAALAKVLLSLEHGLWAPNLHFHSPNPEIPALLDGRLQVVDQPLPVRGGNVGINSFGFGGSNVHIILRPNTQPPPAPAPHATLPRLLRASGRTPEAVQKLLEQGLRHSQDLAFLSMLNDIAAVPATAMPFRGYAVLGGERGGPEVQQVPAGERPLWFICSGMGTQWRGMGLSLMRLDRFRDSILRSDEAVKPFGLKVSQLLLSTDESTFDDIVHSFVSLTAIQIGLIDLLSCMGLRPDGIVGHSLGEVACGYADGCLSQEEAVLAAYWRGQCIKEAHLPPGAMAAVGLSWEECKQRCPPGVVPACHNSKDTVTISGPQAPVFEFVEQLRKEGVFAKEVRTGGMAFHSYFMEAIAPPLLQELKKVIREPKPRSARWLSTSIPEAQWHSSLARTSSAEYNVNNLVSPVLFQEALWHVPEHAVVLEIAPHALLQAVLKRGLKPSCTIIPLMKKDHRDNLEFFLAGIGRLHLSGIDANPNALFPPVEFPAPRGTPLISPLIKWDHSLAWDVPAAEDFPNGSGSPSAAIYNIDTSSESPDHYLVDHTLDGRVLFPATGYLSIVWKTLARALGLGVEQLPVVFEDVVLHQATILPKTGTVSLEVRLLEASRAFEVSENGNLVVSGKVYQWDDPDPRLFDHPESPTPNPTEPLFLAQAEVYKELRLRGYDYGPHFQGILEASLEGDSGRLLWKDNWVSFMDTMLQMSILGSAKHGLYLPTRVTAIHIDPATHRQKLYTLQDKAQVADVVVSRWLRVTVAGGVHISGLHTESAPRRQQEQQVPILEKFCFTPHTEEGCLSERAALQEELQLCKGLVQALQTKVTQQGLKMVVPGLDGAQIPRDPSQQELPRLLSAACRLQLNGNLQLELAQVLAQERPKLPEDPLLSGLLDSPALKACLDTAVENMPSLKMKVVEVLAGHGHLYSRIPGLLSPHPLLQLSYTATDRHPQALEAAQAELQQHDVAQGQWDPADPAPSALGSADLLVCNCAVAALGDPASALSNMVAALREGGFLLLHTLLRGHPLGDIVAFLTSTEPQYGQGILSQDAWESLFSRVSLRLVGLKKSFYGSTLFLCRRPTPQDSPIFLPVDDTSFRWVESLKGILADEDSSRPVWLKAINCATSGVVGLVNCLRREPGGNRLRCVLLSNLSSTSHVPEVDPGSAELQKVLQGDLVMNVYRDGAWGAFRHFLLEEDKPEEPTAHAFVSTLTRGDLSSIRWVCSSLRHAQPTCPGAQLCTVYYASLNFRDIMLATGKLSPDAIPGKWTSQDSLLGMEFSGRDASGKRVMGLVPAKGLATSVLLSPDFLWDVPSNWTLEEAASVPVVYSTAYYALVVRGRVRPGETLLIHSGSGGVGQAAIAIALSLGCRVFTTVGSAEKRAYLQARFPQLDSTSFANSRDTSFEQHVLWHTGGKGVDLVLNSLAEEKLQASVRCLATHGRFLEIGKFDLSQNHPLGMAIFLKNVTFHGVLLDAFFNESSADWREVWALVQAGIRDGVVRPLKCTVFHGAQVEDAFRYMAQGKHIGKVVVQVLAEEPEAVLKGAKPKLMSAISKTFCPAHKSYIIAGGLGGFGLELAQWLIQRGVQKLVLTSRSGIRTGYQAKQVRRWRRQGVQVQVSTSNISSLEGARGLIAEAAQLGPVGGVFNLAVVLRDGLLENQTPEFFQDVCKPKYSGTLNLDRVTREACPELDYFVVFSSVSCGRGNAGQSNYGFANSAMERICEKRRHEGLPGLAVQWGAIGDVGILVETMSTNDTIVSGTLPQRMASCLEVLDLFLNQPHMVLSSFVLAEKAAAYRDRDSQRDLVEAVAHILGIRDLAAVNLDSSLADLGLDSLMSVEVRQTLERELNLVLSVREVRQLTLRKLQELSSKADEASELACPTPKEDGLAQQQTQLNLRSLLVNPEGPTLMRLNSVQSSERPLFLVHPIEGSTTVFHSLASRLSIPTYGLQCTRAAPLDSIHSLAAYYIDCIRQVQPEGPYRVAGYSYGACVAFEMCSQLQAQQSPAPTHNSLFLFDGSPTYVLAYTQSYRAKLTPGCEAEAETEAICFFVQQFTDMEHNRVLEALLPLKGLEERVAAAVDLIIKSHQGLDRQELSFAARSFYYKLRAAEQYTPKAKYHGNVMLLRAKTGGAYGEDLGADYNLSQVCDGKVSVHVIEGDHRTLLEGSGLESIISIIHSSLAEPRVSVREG

Fatty acid synthase [2] = target: T1, Fatty acid synthase; test: inhibition of human FAS-TE enzyme activity – biochemical, endpoint fluorescence intensity, uHTS hits, dose response (AID 624327); assay type: functional;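 further: fluorescence from hydrolysis of an O-methyl fluorescein acyl ester substrate by the enzyme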
[3] = target: T2, Endoribonuclease toxin MazF (Escherichia coli K-12, UniProt P0AE70); test: activation of MazEF endoribonuclease cleavage – biochemical, fluorescence, single-stranded RNA substrate, uHTS hits, dose response (AID 588481); assay type: functional
T2 sequence (P0AE70 whole entry): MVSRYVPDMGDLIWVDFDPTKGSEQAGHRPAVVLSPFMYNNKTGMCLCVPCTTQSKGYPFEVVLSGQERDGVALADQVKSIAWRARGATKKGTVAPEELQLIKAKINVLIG

[4] = target: T3, Corticotropin-releasing factor receptor 2/Corticotropin-releasing factor-binding protein (Homo sapiens, UniProt P24387+Q13324); test: activators of CRF receptor 2 with binding protein – uHTS hits, confirmation (AID 602473); assay type: functional; settings: read-out: EC50_Mean
T3 sequence (Q13324 whole entry): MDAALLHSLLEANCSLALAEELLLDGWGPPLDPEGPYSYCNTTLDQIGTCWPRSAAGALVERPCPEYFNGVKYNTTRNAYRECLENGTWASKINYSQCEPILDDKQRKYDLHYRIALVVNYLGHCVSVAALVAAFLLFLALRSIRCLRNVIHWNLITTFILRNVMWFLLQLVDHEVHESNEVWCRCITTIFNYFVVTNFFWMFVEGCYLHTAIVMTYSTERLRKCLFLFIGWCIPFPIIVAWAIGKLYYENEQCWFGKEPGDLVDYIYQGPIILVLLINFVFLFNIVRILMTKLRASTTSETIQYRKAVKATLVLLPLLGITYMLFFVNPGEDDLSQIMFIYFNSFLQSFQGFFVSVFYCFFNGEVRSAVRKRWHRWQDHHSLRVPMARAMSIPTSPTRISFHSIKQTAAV
T3 sequence (P24387 whole entry): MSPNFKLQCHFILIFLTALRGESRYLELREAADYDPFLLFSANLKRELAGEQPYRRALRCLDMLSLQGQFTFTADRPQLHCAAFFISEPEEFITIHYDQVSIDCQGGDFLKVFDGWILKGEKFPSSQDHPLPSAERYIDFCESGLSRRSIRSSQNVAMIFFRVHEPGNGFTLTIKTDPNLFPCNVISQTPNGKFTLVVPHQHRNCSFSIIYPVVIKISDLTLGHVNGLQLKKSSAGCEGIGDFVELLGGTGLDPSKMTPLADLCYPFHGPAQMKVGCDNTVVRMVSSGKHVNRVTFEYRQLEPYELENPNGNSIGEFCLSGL

[5] = target: T4, RNA-binding protein pos-1 (Caenorhabditis elegans, UniProt G5EF15); test: disruptors of C. elegans POS-1 RNA interaction – biochemical, fluorescence polarization, dose response (AID 1964);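 further: purified POS-1 fused to maltose binding protein made in E. coli; potency of compounds blocking POS-1 binding to fluorescent RNA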
T4 sequence (G5EF15 whole entry): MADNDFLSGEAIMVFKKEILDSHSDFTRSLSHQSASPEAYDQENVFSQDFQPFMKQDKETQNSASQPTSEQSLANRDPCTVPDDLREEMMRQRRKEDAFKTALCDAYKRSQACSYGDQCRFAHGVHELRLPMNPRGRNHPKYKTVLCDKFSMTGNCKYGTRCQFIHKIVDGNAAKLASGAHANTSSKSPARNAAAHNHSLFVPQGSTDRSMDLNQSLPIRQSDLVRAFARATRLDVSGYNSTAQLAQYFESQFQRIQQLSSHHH

[6] = target: T2, Endoribonuclease toxin MazF; test: substrate-only fluorescence increase artefacts – biochemical, single-stranded RNase substrate, counter-screen for MazEF activator project, dose response (AID 588502); assay type: functional
[7] = target: T5, Zinc finger protein mex-5 (Caenorhabditis elegans, UniProt Q9XUB2); test: potency of MEX-5 RNA-binding blockers – biochemical, C. elegans, fluorescence polarization, dose response (AID 1960)
T5 sequence (Q9XUB2 whole entry): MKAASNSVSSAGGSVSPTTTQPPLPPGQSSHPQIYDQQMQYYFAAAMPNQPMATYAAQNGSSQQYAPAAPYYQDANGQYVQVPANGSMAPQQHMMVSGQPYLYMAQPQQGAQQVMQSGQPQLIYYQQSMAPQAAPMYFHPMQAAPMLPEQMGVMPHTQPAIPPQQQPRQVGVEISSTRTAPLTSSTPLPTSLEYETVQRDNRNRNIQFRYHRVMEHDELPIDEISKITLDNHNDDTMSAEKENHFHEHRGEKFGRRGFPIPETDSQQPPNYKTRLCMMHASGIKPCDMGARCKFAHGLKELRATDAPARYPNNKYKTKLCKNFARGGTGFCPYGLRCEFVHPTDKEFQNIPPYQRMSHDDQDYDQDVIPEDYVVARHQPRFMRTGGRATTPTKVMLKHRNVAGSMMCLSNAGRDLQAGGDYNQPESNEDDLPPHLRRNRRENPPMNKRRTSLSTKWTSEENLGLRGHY

[8] = microbe, parasite or virus in culture; assay type: functional; settings: Mycobacterium tuberculosis
[9] = target: T6, Apoptotic protease-activating factor 1 (Homo sapiens, UniProt O14727); assay type: functional
T6 sequence (O14727 whole entry): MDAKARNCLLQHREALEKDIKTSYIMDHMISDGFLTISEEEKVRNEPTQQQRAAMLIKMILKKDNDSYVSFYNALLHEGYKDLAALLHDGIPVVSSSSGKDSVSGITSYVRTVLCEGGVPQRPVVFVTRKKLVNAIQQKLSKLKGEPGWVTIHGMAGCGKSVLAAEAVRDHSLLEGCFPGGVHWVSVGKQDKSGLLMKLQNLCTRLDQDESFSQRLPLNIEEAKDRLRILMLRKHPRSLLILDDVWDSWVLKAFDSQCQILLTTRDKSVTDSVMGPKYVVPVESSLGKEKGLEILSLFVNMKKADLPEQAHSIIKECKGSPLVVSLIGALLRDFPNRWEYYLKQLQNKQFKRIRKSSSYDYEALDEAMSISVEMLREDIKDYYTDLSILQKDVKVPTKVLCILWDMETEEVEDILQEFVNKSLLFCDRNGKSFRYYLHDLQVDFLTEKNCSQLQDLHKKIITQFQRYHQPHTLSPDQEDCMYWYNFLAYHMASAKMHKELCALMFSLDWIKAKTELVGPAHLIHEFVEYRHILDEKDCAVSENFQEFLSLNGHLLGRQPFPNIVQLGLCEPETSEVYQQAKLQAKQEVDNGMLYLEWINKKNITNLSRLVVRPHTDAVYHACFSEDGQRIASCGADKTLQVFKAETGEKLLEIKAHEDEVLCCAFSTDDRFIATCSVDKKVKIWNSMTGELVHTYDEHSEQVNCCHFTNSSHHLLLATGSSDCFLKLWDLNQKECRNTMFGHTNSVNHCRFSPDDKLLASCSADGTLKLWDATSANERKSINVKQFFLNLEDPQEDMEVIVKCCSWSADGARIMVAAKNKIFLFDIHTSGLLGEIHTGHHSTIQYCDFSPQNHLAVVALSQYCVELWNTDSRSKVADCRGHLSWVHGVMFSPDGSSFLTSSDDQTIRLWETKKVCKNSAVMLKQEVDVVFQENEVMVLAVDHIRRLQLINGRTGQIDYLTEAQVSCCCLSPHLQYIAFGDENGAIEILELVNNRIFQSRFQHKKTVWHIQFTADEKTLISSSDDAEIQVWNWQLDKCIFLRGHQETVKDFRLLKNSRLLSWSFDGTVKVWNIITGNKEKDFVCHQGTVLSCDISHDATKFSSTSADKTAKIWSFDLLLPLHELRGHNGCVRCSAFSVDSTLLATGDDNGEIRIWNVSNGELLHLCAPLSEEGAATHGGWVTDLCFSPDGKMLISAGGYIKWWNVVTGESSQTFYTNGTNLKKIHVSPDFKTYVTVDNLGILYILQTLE

[10] = luciferase reporter signal suppression in cells – H4 neuroglioma cells, luminescence, dose response (AID 1990); assay type: functional, cell-based
[11] = target: T7, Ubiquitin-conjugating enzyme E2 N (Homo sapiens, UniProt P61088); assay type: functional;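 further: Dose-response confirmation in a TR-FRET assay detecting UBC13-driven polyubiquitin chain formation, inhibition measured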
T7 sequence (P61088 whole entry): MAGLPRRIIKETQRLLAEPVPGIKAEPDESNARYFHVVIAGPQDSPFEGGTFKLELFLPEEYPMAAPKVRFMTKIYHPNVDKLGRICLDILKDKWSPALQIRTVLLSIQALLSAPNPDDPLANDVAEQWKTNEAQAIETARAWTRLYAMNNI

[12] = Luminescence Cell-Based Dose Response HTS to Identify Inhibitors of 5'UTR Stem-Loop Driven Prion Protein mRNA Translation in H4 Neuroglioblastoma Cells. [Related pubchem assays: 1827 (Project Summary), 1813 (Primary HTS)]; assay type: functional
[13] = alpha-synuclein stem-loop luciferase translation blockers – H4 neuroglioma cells, luminescence, confirmation (AID 1988); assay type: functional, cell-based
[14] = Luminescence Cell-Based Dose Retest to Confirm Inhibitors of Cancer Stem Cells. [Related pubchem assays (depositor defined):AID2717, AID2721]; assay type: functional; settings: Homo sapiens
[15] = target: Heat shock protein HSP 90-alpha (Homo sapiens, UniProt P07900); assay type: functional, organism-based
[16] = viability of PTEN-deleted HCT116 cells – cell-based, HCT116 PTEN knockout, dose response (AID 1047); assay type: functional;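 further: HCT116 colon tumor cells with PTEN knocked out; cells exposed to compound for 60 hours before readout; potency for loss of cell viability measured by luminescence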
INS1 = test: INS-1E survival protection against cytokine death – cell-based, luminescence, retest, dose response (AID 449756); assay type: functional; settings: Rattus norvegicus;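 further: cell death triggered by IL-1 beta plus TNF-alpha plus IFN-gamma mixture; protective hits raise ATP signal compared with cytokine alone wells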
[17] = viability of HCT116 lacking mutant beta-catenin – cell-based, human colon tumor, dose response (AID 1045); assay type: functional;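 further: HCT116 colon tumor cells with beta catenin knocked out; cells exposed to compound for 60 hours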
[18] = blockade of melanocortin 4 receptor signaling – cell-based, plate reader, cherry pick, counter-screen for LGR2 antagonist project, dose response (AID 743444); assay type: functional;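 further: transfected HEK 293 cells stimulated with alpha-MSH peptide; potency of inhibitors of the alpha-MSH evoked signal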
[19] = blockers of bursicon-stimulated LGR2 cAMP reporter – cell-based, HEK293, CRE-luciferase reporter, cherry pick, set 2, dose response (AID 743343); assay type: functional;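 further: transfected cells were stimulated with diluted bursicon conditioned medium after compound addition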
Paired box protein Pax-8 = Paired box protein Pax-8 (Homo sapiens, UniProt Q06710); test: PAX8 transcriptional activity inhibition in RMG-I – RMG-I cells, luciferase, cherry-pick, dose response (AID 687027); assay type: functional, cell-based;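 further: luciferase reporter driven by Pax8 target thyroperoxidase promoter measured by SteadyGlo luminescence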
Chain of Paired box protein Pax-8 (Q06710 whole entry): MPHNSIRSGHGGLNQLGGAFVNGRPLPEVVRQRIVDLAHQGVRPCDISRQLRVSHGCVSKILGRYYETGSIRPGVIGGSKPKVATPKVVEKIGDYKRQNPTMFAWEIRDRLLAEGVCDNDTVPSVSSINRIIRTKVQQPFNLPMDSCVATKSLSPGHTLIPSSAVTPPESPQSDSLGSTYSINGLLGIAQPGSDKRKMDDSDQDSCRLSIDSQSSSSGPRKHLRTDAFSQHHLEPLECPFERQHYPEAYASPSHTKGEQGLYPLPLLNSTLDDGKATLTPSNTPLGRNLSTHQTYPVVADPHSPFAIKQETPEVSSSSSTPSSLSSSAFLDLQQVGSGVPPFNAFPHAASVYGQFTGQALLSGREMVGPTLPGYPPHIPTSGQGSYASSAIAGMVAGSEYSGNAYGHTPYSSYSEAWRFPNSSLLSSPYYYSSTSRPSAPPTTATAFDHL

[20] = general cell-killing toxicity readout – plate reader, dry powder samples, cytotoxicity control for PAX8 inhibitor project, dose response (AID 743021); assay type: functional, cell-based

## CC(C)(C)OC(=O)CNC(=O)c1[nH]cnc1C(=O)N[C@@H](CCCCNC(=O)OC(C)(C)C)C(=O)OC(C)(C)C
Fatty acid synthase [1]
  IC50: 0.364 µM (active)
Fatty acid synthase [2]
  IC50: 0.517 µM (active)

## COC(=O)Cn1cc(/C=C2\C(=O)NC(=O)N(c3ccc(OC)cc3)C2=O)c2ccccc21
[3]
  EC50: > 99 µM (inactive)
[4]
  EC50: 5.57 µM (active)
[5]
  EC50: 69.1 µM (active)
[6]
  EC50: 71.4 µM (inactive)
[7]
  EC50: 6.99 µM (active)

## O=C(CN1CCN(C(=O)COc2cccc(F)c2)CC1)Nc1ccc(Cl)c(C(F)(F)F)c1
[8]
  CC50: > 40 µM (active)

## CC(C)(C)c1ccc(OCCC(=O)OCC(=O)NCc2ccccc2)cc1
Fatty acid synthase [1]
  IC50: 6.7 µM (active)
Fatty acid synthase [2]
  IC50: 6.55 µM (active)

## O=C(CCn1c2c(c3ccccc31)CCCC2)NNC(=O)c1ccc(Cl)c([N+](=O)[O-])c1
[9]
  IC50: 0.798 µM (active)

## O=C(OCC(=O)N1CCc2ccccc2C1)c1ccc(Cl)c([N+](=O)[O-])c1
Fatty acid synthase [1]
  IC50: 2.41 µM (active)
Fatty acid synthase [2]
  IC50: 5.45 µM (active)

## CCN1CCN(Cc2ccc(NC(=O)c3cc(NC(=O)c4cncc(-c5cccs5)c4)cc(OC)c3)cc2C(F)(F)F)CC1
[10]
  EC50: > 120 µM (not active)
[11]
  IC50: > 20 µM (inactive)
[12]
  EC50: 8.93 µM (active)
[8]
  CC50: 8.62 µM (active)
[13]
  EC50: > 120 µM (not active)
[14]
  AC50: 7.38 µM (active)

## CCCCOc1ccc(C(=O)NCC(=O)NCC(c2cccs2)N2CCOCC2)cc1 (stereo not given)
[9]
  IC50: > 100 µM (inactive)

## Cc1cc(Br)ccc1NC(=O)C(C)c1ccc([N+](=O)[O-])cc1 (stereo not given)
Fatty acid synthase [1]
  IC50: 18.8 µM (active)
Fatty acid synthase [2]
  IC50: 31.9 µM (inactive)

## Cn1c(SCC(=O)N/N=C/c2ccc([N+](=O)[O-])s2)nnc1-c1ccc(Cl)cc1
[15]
  AC50: 2.55 µM (active)
[16]
  EC50: 4.91 µM (active)
INS1
  AC50: 9.33 µM (active)
[17]
  EC50: 4.82 µM (active)

## Cc1ccc2nc(-c3ccc(Br)cc3)cn2c1
[18]
  AC50: 0.704 µM (active)
[19]
  AC50: 0.662 µM (active)
Paired box protein Pax-8
  AC50: 11.2 µM (active)
[20]
  AC50: 24.6 µM (active)
